One test addresses T1, CB1R (Rattus norvegicus, UniProt P20272).
T1 construct: Crude membrane fractions were prepared from the brain; from tissue; host or cells: Wistar rat whole brain, crude membrane fraction
Kind of test: Ligand stimulated [35S]GTPγS binding assay in rat brain membranes. The class given is biochemical. The following applies: read-out: [35S]GTPγS stimulation Emax. The method, then: Our novel chemical compounds were tested in vitro for their binding ability, efficacy, and potency on CB1R in rat brain membrane homogenate (Table 2 and SI, Figure S1). CB1Rs are the most abundant G-protein coupled receptors in the rodent and mammalian brain; therefore, this is an appropriate model to characterize our ligands in a more physiological system.
In Vitro Biological Assays
Preparation of Brain Membrane Homogenates
Wistar rats were locally bred and handled according to the EU Directive 2010/63/EU and to the Regulations on Animal Protection (40/2013. (II. 14.) Korm. r.) of Hungary. Crude membrane fractions were prepared from the brain. Brains were quickly removed from the euthanized rats and directly put in an ice-cold 50 mM Tris-HCl buffer (pH 7.4). The collected tissue was then homogenized in 30 volumes (v/w) of an ice-cold buffer with a Braun Teflon-glass homogenizer at the highest rpm. The homogenate was centrifuged at 20,000 × g for 25 min, and the resulting pellet was suspended in the same volume of a cold buffer followed by incubation at 37 °C for 30 min to remove endogenous ligands. Centrifugation was then repeated. The final pellets were taken up in five volumes of a 50 mM Tris-HCl (pH 7.4) buffer containing 0.32 M sucrose and stored at -80 °C. Prior to the experiment, aliquots were thawed and centrifuged at 20,000 ×g for 25 min and then they were resuspended in 50 mM Tris-HCl (pH 7.4), homogenized with a Douncer, followed by the determination of the protein concentration by the method of Bradford. The membrane suspensions were immediately used either in radioligand binding experiments or in [35S]GTPγS functional assays. […]
was terminated by diluting the samples with an ice-cold wash buffer (50 mM of Tris-HCl, 2.5 mM of EGTA, 5 mM of MgCl2, 0.5% fatty acid free BSA, pH 7.4), followed by repeated washing and rapid filtration through Whatman GF/B glass fiber filters (Whatman Ltd., Maidstone, UK) pre-soaked with 0.1% polyethyleneimine (30 min before the filtration). Filtration was performed with a 24-well Brandel Cell Harvester (Gaithersburg, MD, USA). Filters were air-dried and immersed into Ultima Gold MV scintillation cocktail, and then radioactivity was measured with a TRI-CARB 2100TR liquid scintillation analyzer (Packard, Perkin Elmer, Waltham, MA, USA).
Ligand Stimulated [35S]GTPγS Binding Assay
Rat brain membranes (30 µg protein/tube), prepared as described above, were incubated with 0.05 nM of […]
mM of NaCl, 3 mM of MgCl2 and 1 mM of EGTA in a 50 mM Tris-HCl buffer (pH 7.4) for 60 min at 30 °C. Basal [35S]GTPγS binding was measured in the absence of ligands and set as 100%. Nonspecific […]
binding was determined by the addition of 10 µM unlabelled GTPγS and subtracted from total binding.
Incubation, filtration and radioactivity measurements of the samples were carried out as described above. […]
All […]
data and curves were analyzed by GraphPad Prism 5.0 (San Diego, CA, USA).
For orientation: GTPγS is a poorly hydrolysed GTP analogue; its binding reports G protein activation.

Test [1] deals with mice. Kind of test: Hot plate test. The class given is in vivo, mouse. The following applies: 10 μg/10 μL i.c.v., 15-120 min. An excerpt: In Vivo Biological Assays
The international and national law and policies approved by Italian Ministry of Health were used to comply with all animal care and experimental procedures. Animal studies were advised in compliance with the ARRIVE guidelines and with the recommendations made by EU Directive 2010/63/EU for animal experiments and the Basel declaration including the 3Rs concept. CD-1 male mice (10-14 weeks of age, 25-30 g of weight) were bought from Charles River (Milan, Italy). […]
The test was carried out as previously described. […] Mice were transferred into transparent and individual plastic cages with thick white paper lining the bottom and access to a pre-measured amount of their regular lab chow (2 gr) for the 1-h test. […] The amount of food left in the trial cage, including crumbs, was measured, and the amount consumed was calculated. […]
Thermal nociception (hot-plate test) was assessed with a commercially available apparatus consisting of a metal plate 25x25 cm (Ugo Basile, Italy) heated to a constant temperature of 55.0 ± 0.1 °C, on which a plastic cylinder (20 cm diameter, 18 cm high) was placed. The time of latency (s) was recorded from the moment the animal was placed in the cylinder on the hot plate until it licked its paws or jumped; the cut-off time was 60 s. […] The time course of latency was then determined at 15, 30, 45, 60, 90 and 120 min after compound treatment. […]
For orientation: Hot-plate and tail-flick tests time the reaction to a heat stimulus.

In test [2] the test system is mice. Kind of test: Zymosan-induced paw edema. The class given is in vivo, mouse. The following applies: 100 μg/20 μL s.c., 15 min before zymosan. The method, then:
Drugs were administered s.c. in the dorsal surface of the right hind paw at the dose of 100 μg/20 μL, 15 min before zymosan. […]
testing. […] Then, the compounds were
Compounds were prepared by freshly diluting
Then, these solutions were injected for
The total time the animal spent licking or biting its paw was calculated.
Then, paw edema was calculated as formerly
Paw volume was quantified using a
Data Analysis and Statistics
Statistically significant differences between
Data were considered statistically
The data and statistical analyses respected the recommendations on experimental design and analysis.

The next test deals with partially satiated rats. To be noted: cited from earlier work.
In test [3] the test system is rats with spinal cord injury (SCI). The following applies: repeated treatment; cited from earlier work.
Test [4] deals with mice. The following applies: mice colitis model; cited from earlier work.

T1 sequence (P20272 whole entry): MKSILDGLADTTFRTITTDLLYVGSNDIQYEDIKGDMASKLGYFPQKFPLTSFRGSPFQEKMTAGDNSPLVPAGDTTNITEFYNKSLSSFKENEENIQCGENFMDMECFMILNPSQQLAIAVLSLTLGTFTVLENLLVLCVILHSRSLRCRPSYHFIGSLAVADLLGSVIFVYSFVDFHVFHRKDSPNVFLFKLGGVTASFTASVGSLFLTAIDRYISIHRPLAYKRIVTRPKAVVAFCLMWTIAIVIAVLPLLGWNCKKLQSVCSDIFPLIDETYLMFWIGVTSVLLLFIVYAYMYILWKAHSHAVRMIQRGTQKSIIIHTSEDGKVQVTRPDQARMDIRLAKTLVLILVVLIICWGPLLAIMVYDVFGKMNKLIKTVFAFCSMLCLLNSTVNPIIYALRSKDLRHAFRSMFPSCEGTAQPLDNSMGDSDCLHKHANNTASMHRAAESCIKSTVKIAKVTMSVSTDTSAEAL

`Cc1c(C(=O)c2cccc3ccccc23)c2cccc3c2n1[C@H](CN1CCOCC1)CO3` [WIN55,212-2]: at CB1R, the Emax – broadly, the greatest response seen or fitted, relative to the assay's reference – came out at 170 ± 1.7%. In addition, the “anti-nociceptive effect in hot plate test (%MPE)” value in the test with mice [1] is given as “diminished immediately after administration”. The “anti-inflammatory effect on zymosan-induced paw volume increase” value in the test on mice [2] is given as “induced an anti-inflammatory effect”. In addition, the “food intake and motor behavior after WIN55,212-2” value with partially satiated rats (higher doses (5 mg/kg), partially satiated rats) was “inhibit the food intake and motor behavior”. For the same molecule, the “food intake after WIN55,212-2” value with partially satiated rats (i.p. 1 mg/kg and 2 mg/kg, up to 6 h after the injection) is given as “hyperphagia”. The neuropathic pain-related behavior entry in test [3] is listed as “sustained decrease in neuropathic pain-related behavior”. Further, in the test on mice [4], the “anti-inflammatory effect in DSS-induced colitis” value is on record as “acting as an anti-inflammatory drug with improved pathological changes”.

The record behind these values is publication PMC10108392, “Rimonabant-Based Compounds Bearing Hydrophobic Amino Acid Derivatives as Cannabinoid Receptor Subtype 1 Ligands” (ACS Medicinal Chemistry Letters, 2023).
